Source: patent publication US4738971A, “N-aryl-1,2-dihydro-4-substituted-1-alkyl-2-oxo-quinoline-3-carboxamides” (priority 1981, dated 1988)

Assays:
[1] = test system: delayed hypersensitivity reaction (adjuvant arthritis, Mycobacterium butyricum); experiment: adjuvant arthritis test in rats; assay type: in vivo, rat (male Lister hooded); conditions: 40 mg/kg p.o.
Text: The adjuvant arthritis test in rats produces a measureable extent of a delayed hypersensitivity reaction and can be used for a determination of variations in the extent of the delayed hypersensitivity reaction upon drug administration to the host. An increase in the extent of the delayed hypersensitivity reaction upon drug administration consequently indicates enhanced cell-mediated immunity in the host.
This example illustrates the effect of the compounds of the general formula I in the adjuvant arthritis test in rats.
The adjuvant arthritis test in rats produces a delayed hypersensitivity reaction and can be used for a determination of variations of the delayed hypersensitivity reaction upon drug administration to the host. An increase in the extent of the delayed hypersensitivity reaction upon drug administration consequently indicates enhanced cell-mediated immunity in the host.
A modification of a method described in (12) was used. Male Lister hooded rats weighing 250-275 g were used. At least 9 animals were used in each experimental group.
A single intradermal injection of 0.5 mg/0.1 ml heat killed Mycobacterium butyricum suspended in sterile liquid paraffinum was given into the right hind foot of all rats. After this injection, day 0, the volume of the left hind paw, measured by water displacement, was followed to the end of the experiment.
The substances suspended in aqueous methocel solution 10 ml/kg were given intragastrically. The control group was given methocel solution 10 ml/kg. The different groups of animals were thus treated once daily from day -4 to day 14. The effect of the substances was assessed by the left foot volume expressed in percent after comparison with the control groups.

[2] = test system: delayed hypersensitivity reaction (pertussis vaccine pleurisy); experiment: pertussis vaccine pleurisy test in rats; assay type: in vivo, rat (male Sprague-Dawley); conditions: 10 mg/kg p.o.
Text: A useful test for the evaluation of the effect of chemical compounds on the immune system is the pertussis vaccine pleurisy test in rats. Compounds which enhance the response in this delayed hypersensitivity reaction are considered to stimulate cell-mediated immunity (4).
This example illustrates the effect of the compounds of the general formula I in the pertussis vaccine pleurisy test.
Pertussis vaccine pleurisy is a useful test for the evaluation of the effect of chemical compounds on the immune system. Compounds which enhance the response in this delayed hypersensitivity reaction are considered to stimulate cell-mediated immunity.
A modification of a method described in (4) was used. Male Sprague-Dawley rats weighing 250-275 g were used. At least ten animals were used in each group.
Equal volumes of Freund's incomplete adjuvant and a suspension of heat killed Bordetella pertussis organisms were mixed. To sensitize animals, day 0, 0.2 ml of a mixture containing 0.036×10^10 organisms/ml was injected into the dorsal surface of one hind paw and one forepaw.
The animals were challenged on day 12 with 0.1 ml of a mixture containing 0.25×10^10 organisms/ml that was injected intrapleurally. 48 hours after challenge, day 14, the volume of the exudate in the pleural cavity was measured.
The substances suspended in aqueous methocel solution 10 ml/kg were given intragastrically once daily from day 10 to day 13. The control groups were given methocel solution 10 ml/kg.
The effect of the substances was assessed by the exudate volume expressed in percent after comparison with the control groups.

[3] = test system: carrageenan-induced edema; experiment: carrageenan edema test in rats; assay type: in vivo, rat (female Sprague-Dawley); conditions: dose within the range 10-160 mg/kg p.o.
Text: Another test, in which the effect of a drug corresponds to the effects obtained in the tests mentioned above, and which can therefore also be used, is the well-established carrageenan edema test in rats (5). Comparative evaluation of compounds of the present invention in the three tests mentioned has shown that compounds which increase the extent of the delayed hypersensitivity reaction in the pertussis vaccine pleurisy test and in the adjuvant arthritis test also increase the extent of carrageenan-induced edema in the carrageenan edema test, thus providing a further tool for the determination of enhancement of cell-mediated immunity.
This example illustrates the effect of the compounds of the general formula I in the carrageenan edema test in rats.
A modification of a method described in (5) was used. Female Sprague-Dawleyrats weighing 110-120 g was used. At least 10 animals were used in each experimental group. Foot edema was induced by injecting carrageenan in 0.9% NaCl into the plantar surface of the right hind paw of the rats.
The substances suspended in aqueous methocel solution 10 ml/kg were administered intragastrically 30 minutes before the injection of carrageenan. The control groups were given methocel solution 10 ml/kg.
Three hours after carrageenan injection the animals were killed. The hind feet were cut off and weighed. The difference in weight of the injected right paw and the uninjected left paw was called edema weight.
The effect of the substances was assessed by the edema weight expressed in percent after comparison with the control groups.

Cc1cc(N(C)C(=O)c2c(O)c3cc(Cl)ccc3n(C)c2=O)sn1 [21:24, N-methyl-N-(3-methyl-5-isothiazolyl)-6-chloro-1,2-dihydro-4-hydroxy-1-methyl-2-oxo-quinoline-3-carboxamide]
significant potentiating effect in the adjuvant arthritis test [1]: significant potentiating effect | significant enhancing effect in the pertussis vaccine pleurisy test [2]: significant enhancing effect

CN(C(=O)c1c(O)c2ccccc2n(-c2ccc(F)cc2)c1=O)c1ccc(N2CCCC2)cc1 [21:19, N-methyl-N-(4-pyrrolidinophenyl)-1-(4-fluorophenyl)-1,2-dihydro-4-hydroxy-2-oxo-quinoline-3-carboxamide]
significant potentiating effect in the adjuvant arthritis test [1]: significant potentiating effect

COc1ccc(N(C)C(=O)c2c(O)c3cccc4c3n(c2=O)CC4)cc1 [21:28, N-(4-methoxyphenyl)-N-methyl-1,2-dihydro-1,8-ethylene-4-hydroxy-2-oxo-quinoline-3-carboxamide]
significant potentiating effect in the adjuvant arthritis test [1]: significant potentiating effect | significant enhancing effect in the pertussis vaccine pleurisy test [2]: significant enhancing effect

CN(C(=O)c1c(O)c2ccccc2n(C)c1=O)c1cnccn1 [21:23, N-methyl-N-pyrazinyl-1,2-dihydro-4-hydroxy-1-methyl-2-oxo-quinoline-3-carboxamide]
significant potentiating effect in the adjuvant arthritis test [1]: significant potentiating effect | significant enhancing effect in the pertussis vaccine pleurisy test [2]: significant enhancing effect

CN(C(=O)c1c(O)c2cccc3c2n(c1=O)CC3)c1nccs1 [21:31, N-methyl-N-2-thiazolyl-1,2-dihydro-1,8-ethylene-4-hydroxy-2-oxo-quinoline-3-carboxamide]
significant potentiating effect in the adjuvant arthritis test [1]: significant potentiating effect | significant enhancing effect in the pertussis vaccine pleurisy test [2]: significant enhancing effect

CN(C(=O)c1c(O)c2c(F)cccc2n(C)c1=O)c1ccccc1 [20:16, N-methyl-N-phenyl-1,2-dihydro-5-fluoro-4-hydroxy-1-methyl-2-oxo-quinoline-3-carboxamide]
significant potentiation of the carrageenan edema [3]: potentiate significantly | significant enhancing effect in the pertussis vaccine pleurisy test [2]: significant enhancing effect

CN(C(=O)c1c(O)c2cccc3c2n(c1=O)CC3)c1cnccn1 [21:20, N-methyl-N-pyrazinyl-1,2-dihydro-1,8-ethylene-4-hydroxy-2-oxo-quinoline-3-carboxamide]
significant potentiation of the carrageenan edema [3]: potentiate significantly | significant enhancing effect in the pertussis vaccine pleurisy test [2]: significant enhancing effect

CN(C(=O)c1c(O)c2ccccc2n(C)c1=O)c1ccc2c(c1)OCO2 [20:29, N-methyl-N-(3,4-methylenedioxyphenyl)-1,2-dihydro-4-hydroxy-1-methyl-2-oxo-quinoline-3-carboxamide]
significant potentiation of the carrageenan edema [3]: potentiate significantly | significant enhancing effect in the pertussis vaccine pleurisy test [2]: significant enhancing effect

CN(C(=O)c1c(O)c2ccccc2n(C)c1=O)c1nccs1 [21:21, N-methyl-N-2-thiazolyl-1,2-dihydro-4-hydroxy-1-methyl-2-oxo-quinoline-3-carboxamide]
significant potentiation of the carrageenan edema [3]: potentiate significantly | significant enhancing effect in the pertussis vaccine pleurisy test [2]: significant enhancing effect

COc1cccc(N(C)C(=O)c2c(O)c3cc(C)ccc3n(C(C)C)c2=O)c1 [21:17, N-(3-methoxyphenyl)-N-methyl-1,2-dihydro-4-hydroxy-1-isopropyl-6-methyl-2-oxo-quinoline-3-carboxamide]
significant potentiating effect in the adjuvant arthritis test [1]: significant potentiating effect | significant enhancing effect in the pertussis vaccine pleurisy test [2]: significant enhancing effect

CC(=O)Nc1ccc(N(C)C(=O)c2c(O)c3ccccc3n(C)c2=O)cc1 [20:35, N-(4-acetylaminophenyl)-N-methyl-1,2-dihydro-4-hydroxy-1-methyl-2-oxo-quinoline-3-carboxamide]
significant potentiation of the carrageenan edema [3]: potentiate significantly | significant enhancing effect in the pertussis vaccine pleurisy test [2]: significant enhancing effect

CCN(C(=O)c1c(O)c2cc(N(C)C)ccc2n(C)c1=O)c1ccccn1 [21:26, N-ethyl-N-2-pyridyl-1,2-dihydro-6-dimethylamino-4-hydroxy-1-methyl-2-oxo-quinoline-3-carboxamide]
significant potentiating effect in the adjuvant arthritis test [1]: significant potentiating effect | significant enhancing effect in the pertussis vaccine pleurisy test [2]: significant enhancing effect

CN(C(=O)c1c(O)c2ccccc2n(C)c1=O)c1ccc(O)cc1 [21:11, N-(4-hydroxyphenyl)-N-methyl-1,2-dihydro-4-hydroxy-1-methyl-2-oxo-quinoline-3-carboxamide]
significant potentiating effect in the adjuvant arthritis test [1]: significant potentiating effect | change in vivo at 10 mg/kg ([2]; Rattus norvegicus, po, 48 h, once daily day 10 to day 13, vs control, preliminary, read-out: Enhancement of the delayed hypersensitivity reaction assessed by the exudate vol.): 34%

CN(C(=O)c1c(O)c2ccccc2n(C)c1=O)c1ccc(N2CCCCC2)cc1 [20:9, N-(4-piperidinophenyl)-N-methyl-1,2-dihydro-4-hydroxy-1-methyl-2-oxo-quinoline-3-carboxamide]
significant potentiation of the carrageenan edema [3]: potentiate significantly | significant enhancing effect in the pertussis vaccine pleurisy test [2]: significant enhancing effect

CC(=O)Nc1ccc(NC(=O)c2c(O)c3ccccc3n(C)c2=O)cc1 [1:41, N-(4-acetylaminophenyl)-1,2-dihydro-4-hydroxy-1-methyl-2-oxo-quinoline-3-carboxamide]
significant potentiation of the carrageenan edema [3]: potentiate significantly | significant enhancing effect in the pertussis vaccine pleurisy test [2]: significant enhancing effect

CCN(C(=O)c1c(OC)c2c(F)cccc2n(C)c1=O)c1ccc(OC)c(OC)c1 [21:16, N-(3,4-dimethoxyphenyl)-N-ethyl-1,2-dihydro-5-fluoro-4-methoxy-1-methyl-2-oxo-quinoline-3-carboxamide]
significant potentiation of the carrageenan edema [3]: potentiate significantly | significant enhancing effect in the pertussis vaccine pleurisy test [2]: significant enhancing effect

CN(C)c1ccc(N(C)C(=O)c2c(O)c3ccccc3n(C)c2=O)cc1 [21:10, N-(4-dimethylaminophenyl)-N-methyl-1,2-dihydro-4-hydroxy-1-methyl-2-oxo-quinoline-3-carboxamide]
significant potentiation of the carrageenan edema [3]: potentiate significantly | significant enhancing effect in the pertussis vaccine pleurisy test [2]: significant enhancing effect

COc1ccc(-n2c(=O)c(C(=O)N(C)c3ccccc3)c(O)c3ccccc32)cc1 [20:34, N-methyl-N-phenyl-1-(4-methoxyphenyl)-1,2-dihydro-4-hydroxy-2-oxo-quinoline-3-carboxamide]
significant potentiation of the carrageenan edema [3]: potentiate significantly | significant enhancing effect in the pertussis vaccine pleurisy test [2]: significant enhancing effect
